Earlier results in PubChem BioAssay AID1259409 (Chemical Carcinogenesis Research Information System (CCRIS), 2018).

Tested on: rodent chemically induced tumor inhibition, incidence and multiplicity
Experiment: CCRIS tumor inhibitor studies

In the case of `CC1=C(/C=C/C(C)=C/C=C/C(C)=C/C=C/C=C(C)/C=C/C=C(C)/C=C/C2=C(C)C(=O)[C@@H](O)CC2(C)C)C(C)(C)C[C@H](O)C1=O`, the “tumour outcome (control, treated, inhibition, significance)” value (Carcinogen: 4-NITROQUINOLINE-1-OXIDE, 56-57-5, Dose [Inhibitor]: 0, 100 PPM IN DIET FOR 10 WK BEGINNING PRIOR TO CARCINOGEN TREATMENT (STUDY DURATION: 32 WK), Route [Inhibitor]: ORAL, Species: RAT, Strain/Sex: F344/MALE, Target Tissue: Type of Lesion: TONGUE: PAPILLOMA, Dose [Carcinogen]: 20 PPM IN DRINKING WATER FOR 8 WK, Promoter: NONE USED) is listed as 4/24 (17%), 0/18 (0%), 100%, p<0.05, the “tumour outcome (control, treated, inhibition, significance)” value (Carcinogen: 4-NITROQUINOLINE-1-OXIDE, 56-57-5, Dose [Inhibitor]: 0, 100 PPM IN DIET FOR 10 WK BEGINNING PRIOR TO CARCINOGEN TREATMENT (STUDY DURATION: 32 WK), Route [Inhibitor]: ORAL, Species: RAT, Strain/Sex: F344/MALE, Target Tissue: Type of Lesion: TONGUE: SQUAMOUS CELL CARCINOMA, Dose [Carcinogen]: 20 PPM IN DRINKING WATER FOR 8 WK, Promoter: NONE USED) is listed as 13/24 (54%), 0/18 (0%), 100%, p<0.05 and the “tumour outcome (control, treated, inhibition, significance)” value (Carcinogen: 4-NITROQUINOLINE-1-OXIDE, 56-57-5, Dose [Inhibitor]: 0, 100 PPM IN DIET FOR 22 WK BEGINNING 1 WK POST CARCINOGEN TREATMENT (STUDY DURATION: 32 WK), Route [Inhibitor]: ORAL, Species: RAT, Strain/Sex: F344/MALE, Target Tissue: Type of Lesion: TONGUE: PAPILLOMA, Dose [Carcinogen]: 20 PPM IN DRINKING WATER FOR 8 WK, Promoter: NONE USED) is listed as 4/24 (17%), 0/20 (0%), 100%, p<0.05. The “tumour outcome (control, treated, inhibition, significance)” value (Carcinogen: 4-NITROQUINOLINE-1-OXIDE, 56-57-5, Dose [Inhibitor]: 0, 100 PPM IN DIET FOR 22 WK BEGINNING 1 WK POST CARCINOGEN TREATMENT (STUDY DURATION: 32 WK), Route [Inhibitor]: ORAL, Species: RAT, Strain/Sex: F344/MALE, Target Tissue: Type of Lesion: TONGUE: SQUAMOUS CELL CARCINOMA, Dose [Carcinogen]: 20 PPM IN DRINKING WATER FOR 8 WK, Promoter: NONE USED) was 13/24 (54%), 0/20 (0%), 100%, p<0.05, the “tumour outcome (control, treated, inhibition, significance)” value (Carcinogen: N-BUTYL-N-(4-HYDROXYBUTYL)NITROSAMINE, 3817-11-6, Dose [Inhibitor]: 0, 50 PPM IN DRINKING WATER FOR 2O WK BEGINNING 1 WK POST CARCINOGEN TREATMENT (STUDY DURATION: 41 WK), Route [Inhibitor]: ORAL, Species: MOUSE, Strain/Sex: ICR/MALE, Target Tissue: Type of Lesion: URINARY BLADDER: CARCINOMA, Dose [Carcinogen]: 250 PPM IN DRINKING WATER FOR 20 WK, Promoter: NONE USED) was 15/36 (42%), 6/33 (18%), 57%, p<0.05 and the “tumour outcome (control, treated, inhibition, significance)” value (Carcinogen: N-BUTYL-N-(4-HYDROXYBUTYL)NITROSAMINE, 3817-11-6, Dose [Inhibitor]: 0, 50 PPM IN DRINKING WATER FOR 20 WK BEGINNING 1 WK POST CARCINOGEN TREATMENT (STUDY DURATION: 41 WK), Route [Inhibitor]: ORAL, Species: MOUSE, Strain/Sex: ICR/MALE, Target Tissue: Type of Lesion: URINARY BLADDER: PAPILLOMA, Dose [Carcinogen]: 250 PPM IN DRINKING WATER FOR 20 WK, Promoter: NONE USED) was 2/36 (6%), 4/33 (12%), -100%, not significant.

In the case of `CCCCCCCCCCCCC/C=C/[C@@H](O)[C@@H](N)CO`, the “tumour outcome (control, treated, inhibition, significance)” value (Carcinogen: 7,12-DIMETHYLBENZ[A]ANTHRACENE, 57-97-6, Dose [Inhibitor]: 0, 0.01 UMOL IN 0.2 ML ACETONE 2/WK FOR 15 WK APPLIED 30 MIN PRIOR TO EACH PROMOTER DOSE (STUDY DURATION: 50 WK), Route [Inhibitor]: DERMAL, Species: MOUSE, Strain/Sex: SENCAR/FEMALE, Target Tissue: Type of Lesion: SKIN: CARCINOMA, Dose [Carcinogen]: 10 NMOL ONCE, Promoter: 12-O-TETRADECANOYLPHORBOL-13-ACETATE, 16561-29-8) is given as 87%, 77%, 11%, not significant, the “tumour outcome (control, treated, inhibition, significance)” value (Carcinogen: 7,12-DIMETHYLBENZ[A]ANTHRACENE, 57-97-6, Dose [Inhibitor]: 0, 0.01 UMOL IN 0.2 ML ACETONE 2/WK FOR 15 WK APPLIED 30 MIN PRIOR TO EACH PROMOTER DOSE (STUDY DURATION: 50 WK), Route [Inhibitor]: DERMAL, Species: MOUSE, Strain/Sex: SENCAR/FEMALE, Target Tissue: Type of Lesion: SKIN: PAPILLOMA, Dose [Carcinogen]: 10 NMOL ONCE, Promoter: 12-O-TETRADECANOYLPHORBOL-13-ACETATE, 16561-29-8) is given as 94%, 88%, 6%, not significant and the “tumour outcome (control, treated, inhibition, significance)” value (Carcinogen: 7,12-DIMETHYLBENZ[A]ANTHRACENE, 57-97-6, Dose [Inhibitor]: 0, 0.05 UMOL IN 0.2 ML ACETONE 2/WK FOR 15 WK APPLIED 30 MIN PRIOR TO EACH PROMOTER DOSE (STUDY DURATION: 50 WK), Route [Inhibitor]: DERMAL, Species: MOUSE, Strain/Sex: SENCAR/FEMALE, Target Tissue: Type of Lesion: SKIN: CARCINOMA, Dose [Carcinogen]: 10 NMOL ONCE, Promoter: 12-O-TETRADECANOYLPHORBOL-13-ACETATE, 16561-29-8) is given as 87%, 82%, 6%, not significant. For the same molecule, the “tumour outcome (control, treated, inhibition, significance)” value (Carcinogen: 7,12-DIMETHYLBENZ[A]ANTHRACENE, 57-97-6, Dose [Inhibitor]: 0, 0.05 UMOL IN 0.2 ML ACETONE 2/WK FOR 15 WK APPLIED 30 MIN PRIOR TO EACH PROMOTER DOSE (STUDY DURATION: 50 WK), Route [Inhibitor]: DERMAL, Species: MOUSE, Strain/Sex: SENCAR/FEMALE, Target Tissue: Type of Lesion: SKIN: PAPILLOMA, Dose [Carcinogen]: 10 NMOL ONCE, Promoter: 12-O-TETRADECANOYLPHORBOL-13-ACETATE, 16561-29-8) was 94%, 91%, 3%, not significant, the “tumour outcome (control, treated, inhibition, significance)” value (Carcinogen: 7,12-DIMETHYLBENZ[A]ANTHRACENE, 57-97-6, Dose [Inhibitor]: 0, 0.5 UMOL IN 0.2 ML ACETONE 2/WK FOR 15 WK APPLIED 30 MIN PRIOR TO EACH PROMOTER DOSE (STUDY DURATION: 50 WK), Route [Inhibitor]: DERMAL, Species: MOUSE, Strain/Sex: SENCAR/FEMALE, Target Tissue: Type of Lesion: SKIN: CARCINOMA, Dose [Carcinogen]: 10 NMOL ONCE, Promoter: 12-O-TETRADECANOYLPHORBOL-13-ACETATE, 16561-29-8) was 87%, 84%, 3%, not significant and the “tumour outcome (control, treated, inhibition, significance)” value (Carcinogen: 7,12-DIMETHYLBENZ[A]ANTHRACENE, 57-97-6, Dose [Inhibitor]: 0, 0.5 UMOL IN 0.2 ML ACETONE 2/WK FOR 15 WK APPLIED 30 MIN PRIOR TO EACH PROMOTER DOSE (STUDY DURATION: 50 WK), Route [Inhibitor]: DERMAL, Species: MOUSE, Strain/Sex: SENCAR/FEMALE, Target Tissue: Type of Lesion: SKIN: PAPILLOMA, Dose [Carcinogen]: 10 NMOL ONCE, Promoter: 12-O-TETRADECANOYLPHORBOL-13-ACETATE, 16561-29-8) was 94%, 85%, 10%, not significant. The “tumour outcome (control, treated, inhibition, significance)” value (Carcinogen: 7,12-DIMETHYLBENZ[A]ANTHRACENE, 57-97-6, Dose [Inhibitor]: 0, 10 UMOL IN 0.2 ML ACETONE 2/WK FOR 20 WK APPLIED 30 MIN PRIOR TO EACH PROMOTER DOSE (STUDY DURATION: 50 WK), Route [Inhibitor]: DERMAL, Species: MOUSE, Strain/Sex: SENCAR/FEMALE, Target Tissue: Type of Lesion: SKIN: CARCINOMA, Dose [Carcinogen]: 10 NMOL ONCE, Promoter: 12-O-TETRADECANOYLPHORBOL-13-ACETATE, 16561-29-8) was 47%, 56%, -19%, not significant and the “tumour outcome (control, treated, inhibition, significance)” value (Carcinogen: 7,12-DIMETHYLBENZ[A]ANTHRACENE, 57-97-6, Dose [Inhibitor]: 0, 10 UMOL IN 0.2 ML ACETONE 2/WK FOR 20 WK APPLIED 30 MIN PRIOR TO EACH PROMOTER DOSE (STUDY DURATION: 50 WK), Route [Inhibitor]: DERMAL, Species: MOUSE, Strain/Sex: SENCAR/FEMALE, Target Tissue: Type of Lesion: SKIN: PAPILLOMA, Dose [Carcinogen]: 10 NMOL ONCE, Promoter: 12-O-TETRADECANOYLPHORBOL-13-ACETATE, 16561-29-8) was 93%, 96%, -3%, not significant.

In the case of `CC1=C(/C=C/C(C)=C/C=C/C(C)=C\C(=O)NCCCCO)C(C)(C)CCC1`, the “tumour outcome (control, treated, inhibition, significance)” value (Carcinogen: N-BUTYL-N-(4-HYDROXYBUTYL)NITROSAMINE, 3817-11-6, Dose [Inhibitor]: 1.5 MMOL/KG DIET DAILY FOR 133 D STARTING ONE WK AFTER THE FINAL CARCINOGEN DOSE (STUDY DURATION: 190 D), Route [Inhibitor]: ORAL, Species: MOUSE, Strain/Sex: BDF/MALE, Target Tissue: Type of Lesion: URINARY BLADDER: TRANSITIONAL CELL CARCINOMA, Dose [Carcinogen]: 7.5 MG 1/WK FOR 8 WK, Promoter: NONE USED) is listed as 21/100 (21%), 17/100 (17%), 20%, not significant and the “tumour outcome (control, treated, inhibition, significance)” value (Carcinogen: N-BUTYL-N-(4-HYDROXYBUTYL)NITROSAMINE, 3817-11-6, Dose [Inhibitor]: 1.5 MMOL/KG IN DIET FOR 133 D STARTING 1 WK AFTER LAST CARCINOGEN DOSE (STUDY DURATION: 190 D), Route [Inhibitor]: ORAL, Species: MOUSE, Strain/Sex: DBF1/MALE, Target Tissue: Type of Lesion: URINARY BLADDER: TRANSITIONAL CELL CARCINOMA, Dose [Carcinogen]: 7.5 MG 1/WK FOR 8 WK, Promoter: NONE USED) is listed as 21/100 (21%), 17/100 (17%), 19%, not significant.
